The values below come from patent US7435837B2, “Dihydrobenzofuranyl alkanamine derivatives and methods for using same” (Wyeth, priority 2003, dated 2008).

The target of the first assay is T1, human 5-hydroxytryptamine-2C (h5-HT2C) receptor (Homo sapiens, UniProt P28335).
T1 construct: expressed in transfected cells; host or cells: CHO (Chinese Hamster Ovary) cells; membranes
T1 sequence (P28335 33-458): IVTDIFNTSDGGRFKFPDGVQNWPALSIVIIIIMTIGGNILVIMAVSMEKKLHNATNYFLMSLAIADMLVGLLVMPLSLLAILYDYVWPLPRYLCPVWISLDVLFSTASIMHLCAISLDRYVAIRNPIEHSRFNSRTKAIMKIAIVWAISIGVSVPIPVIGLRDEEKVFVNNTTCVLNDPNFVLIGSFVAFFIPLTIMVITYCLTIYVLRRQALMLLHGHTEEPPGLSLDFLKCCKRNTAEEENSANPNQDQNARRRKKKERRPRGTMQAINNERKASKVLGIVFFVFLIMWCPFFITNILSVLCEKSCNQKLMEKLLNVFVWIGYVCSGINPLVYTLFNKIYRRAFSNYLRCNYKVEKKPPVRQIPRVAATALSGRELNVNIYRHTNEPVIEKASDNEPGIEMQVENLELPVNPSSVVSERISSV
Put plainly: [125I]DOI binding to membranes of CHO cells expressing the human 5-HT2C receptor. Conditions: [125I]DOI radioligand, CHO cell membranes, room temperature 60 min; read-out: 5-HT2C Affinity Ki.
For `COc1cccc2c1OC(CN)C2` (racemic) [Example 7, (±)-1-(7-methoxy-2,3-dihydro-1-benzofuran-2-yl)methanamine], the inhibition constant (Ki) is 160 nM. As to `NCC1Cc2cc(Cl)cc(C3CCCCC3)c2O1` (racemic) [Example 11, (±)-(5-chloro-7-cyclohexyl-2,3-dihydro-1-benzofuran-2-yl)methylamine], the Ki was 106 nM. On to `CNCC1Cc2cc(Cl)cc(C3CCCCC3)c2O1` (racemic) [Example 12, (±)-N-[(5-chloro-7-cyclohexyl-2,3-dihydro-1-benzofuran-2-yl)methyl]-N-methylamine], for which the Ki was determined as 127 nM. As to `COc1cc2c(c(C(C)(C)C)c1)OC(CN)C2` (racemic) [Example 13, (±)-(7-tert-butyl-5-methoxy-2,3-dihydro-1-benzofuran-2-yl)methylamine], the inhibition constant Ki was determined as 133 nM.

In the case of `NCC1Cc2c(C(F)(F)F)ccc(Cl)c2O1` (racemic) [Example 14, (±)-[7-chloro-4-(trifluoromethyl)-2,3-dihydro-1-benzofuran-2-yl]methanamine], the Ki is 78 nM. Take `NCC1Cc2cccc(Cc3ccccc3)c2O1` (racemic) [Example 15, (±)-1-(7-benzyl-2,3-dihydro-1-benzofuran-2-yl)methanamine]: the Ki is 222 nM. `CC(C)(C)c1cccc2c1OC(CN)C2` (racemic) [Example 24, (±)-1-(7-tert-butyl-2,3-dihydro-1-benzofuran-2-yl)methanamine]: the Ki stood at 36 nM. With `COc1ccc2c(c1)OC(CN)C2` (racemic) [Example 30, (±)-1-(6-methoxy-2,3-dihydro-1-benzofuran-2-yl)methanamine], the Ki worked out at 191 nM. `NCC1Cc2ccc(-c3ccccc3)cc2O1` (racemic) [Example 31, (±)-(6-phenyl-2,3-dihydro-1-benzofuran-2-yl)methanamine]: the inhibition constant (Ki) is 1370 nM.

In the case of `NCC1Cc2cccc(-c3cc(C(F)(F)F)cc(C(F)(F)F)c3)c2O1` (racemic) [Example 32, (±)-1-{7-[3,5-bis(trifluoromethyl)phenyl]-2,3-dihydro-1-benzofuran-2-yl}methanamine], the Ki amounted to 419 nM. On to `NCC1Cc2cccc(-c3cccc4ccccc34)c2O1` (racemic) [Example 33, (±)-1-[7-(1-naphthyl)-2,3-dihydro-1-benzofuran-2-yl]methanamine], for which the inhibition constant Ki was determined as 32 nM.

`NCC1Cc2cccc(-c3ccc(F)c(Cl)c3)c2O1` (racemic) [Example 34, (±)-1-[7-(3-chloro-4-fluorophenyl)-2,3-dihydro-1-benzofuran-2-yl]methanamine]: the Ki amounted to 37 nM.

For the compound `NCC1Cc2cccc(-c3cc(Cl)cc(Cl)c3)c2O1` (racemic) [Example 35, (±)-1-[7-(3,5-dichlorophenyl)-2,3-dihydro-1-benzofuran-2-yl]methanamine], the inhibition constant Ki is 141 nM.

Regarding `NCC1Cc2cccc(-c3ccccc3)c2O1` (racemic) [Example 36, (±)-1-(7-phenyl-2,3-dihydro-1-benzofuran-2-yl)methanamine], the Ki came to 15 nM. In the case of `NCC1Cc2cccc(-c3ccc4ccccc4c3)c2O1` (racemic) [Example 39, (±)-1-[7-(2-naphthyl)-2,3-dihydro-1-benzofuran-2-yl]methanamine], the Ki is 43 nM. On the same count and under the same terms, the same measure for `NCC1Cc2cccc(-c3cc4ccccc4o3)c2O1` (racemic) [Example 40, (±)-1-(2′,3′-dihydro-2,7′-bi-1-benzofuran-2′-yl)methanamine]: 122 nM.

For `Cc1cccc(-c2cccc3c2OC(CN)C3)c1` (racemic) [Example 41, (±)-1-[7-(3-methylphenyl)-2,3-dihydro-1-benzofuran-2-yl]methanamine], the Ki stood at 25 nM. Turning to `NCC1Cc2cccc(-c3cccc(C(F)(F)F)c3)c2O1` (racemic) [Example 69, (±)-1-{7-[3-(trifluoromethyl)phenyl]-2,3-dihydro-1-benzofuran-2-yl}methanamine], the Ki stood at 96 nM.

For the compound `NCC1Cc2cc(Cl)cc(-c3ccccc3)c2O1` (racemic) [Example 84, (±)-1-(5-chloro-7-phenyl-2,3-dihydro-1-benzofuran-2-yl)methanamine], the Ki was 11 nM. Take `Cc1cccc(-c2cc(Cl)cc3c2OC(CN)C3)c1` (racemic) [Example 88, (±)-1-[5-chloro-7-(3-methylphenyl)-2,3-dihydro-1-benzofuran-2-yl]methanamine]: the Ki turned out to be 48 nM. Still for that read-out and setting: the same measure for `NCC1Cc2cc(Cl)cc(-c3cccc(Cl)c3)c2O1` (racemic) [Example 89, (±)-1-[5-chloro-7-(3-chlorophenyl)-2,3-dihydro-1-benzofuran-2-yl]methanamine]: 40 nM.

As to `NCC1Cc2cc(Cl)cc(-c3ccsc3)c2O1` (racemic) [Example 90, (±)-(5-chloro-7-thien-3-yl-2,3-dihydro-1-benzofuran-2-yl)methylamine], the Ki amounted to 8 nM. In the case of `NCC1Cc2c(F)ccc(-c3ccccc3)c2O1` (racemic) [Example 98, (±)-1-(4-fluoro-7-phenyl-2,3-dihydro-1-benzofuran-2-yl)methanamine], the Ki stood at 60 nM. `COc1cc(Cl)cc2c1OC(CN)C2` (racemic) [Example 111, (±)-1-(5-chloro-7-methoxy-2,3-dihydro-1-benzofuran-2-yl)methanamine]: the Ki is 26 nM. Consider `CC1(CN)Cc2cc(Cl)cc(-c3ccccc3)c2O1` (racemic) [Example 112, (±)-1-(5-chloro-2-methyl-7-phenyl-2,3-dihydro-1-benzofuran-2-yl)methanamine], for which the Ki is 55 nM.

With `CC1(CN)Cc2cc(Cl)cc(-c3ccsc3)c2O1` (racemic) [Example 113, (±)-(5-chloro-2-methyl-7-thien-3-yl-2,3-dihydro-1-benzofuran-2-yl)methylamine], the Ki was determined as 130 nM. Still for that read-out and setting: the same measure for `CC1(CN)Cc2cc(Cl)cc(-c3cccs3)c2O1` (racemic) [Example 114, (±)-(5-chloro-2-methyl-7-thien-2-yl-2,3-dihydro-1-benzofuran-2-yl)methylamine]: 471 nM; for `CC(C)(C)/C=C/c1cccc2c1OC(CN)C2` (racemic) [Example 117, (±)-1-{7-[(1E)-3,3-dimethylbut-1-enyl]-2,3-dihydro-1-benzofuran-2-yl}methanamine]: 263 nM; for `CC(C)(C)CCc1cccc2c1OC(CN)C2` (racemic) [Example 118, (±)-1-[7-(3,3-dimethylbutyl)-2,3-dihydro-1-benzofuran-2-yl]methanamine]: 319 nM. The same measure, in the same setting: the same measure for `NCC1Cc2cccc(/C=C/c3ccccc3)c2O1` (racemic) [Example 119, (±)-1-{7-[(E)-2-phenylvinyl]-2,3-dihydro-1-benzofuran-2-yl}methanamine]: 78 nM; for `NCC1Cc2cccc(CCc3ccccc3)c2O1` (racemic) [Example 120, (±)-1-[7-(2-phenylethyl)-2,3-dihydro-1-benzofuran-2-yl]methanamine]: 128 nM.

Another assay deals with T2, human 5-HT2C receptor (Homo sapiens, UniProt P28335).
T2 sequence (P28335 33-458): T1 sequence (P28335 33-458)
Put plainly: 5-HT2C receptor-stimulated calcium mobilization (FLIPR) in CHO cells.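 Note: Fluo-3-AM fluorescence read on FLIPR every 1 s, agonist added after 10 baseline reads, response taken as peak minus lowest raw fluorescence count.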 The assay is classed as cell-based. Conditions: CHO, percentage of the response observed with a maximally effective concentration of 5-HT; read-out: 5-HT2C Function Emax (%).
Take `CNCC1Cc2cc(Cl)cc(-c3c(C)cccc3C)c2O1` (single isomer, unassigned; (-)) [Example 564, (−)-{[5-chloro-7-(2,6-dimethylphenyl)-2,3-dihydro-1-benzofuran-2-yl]methyl}methylamine]: the Emax was 90%. Regarding `CNCC1Cc2cc(F)cc(-c3cccc(OC)c3OC)c2O1` (single isomer, unassigned; (-)) [Example 568, (−)-{[7-(2,3-dimethoxyphenyl)-5-fluoro-2,3-dihydro-1-benzofuran-2-yl]methyl}methylamine], the Emax was found to be 80%. Take `NC[C@H]1Cc2cc(F)cc(-c3c(Cl)cccc3Cl)c2O1` [Example 550, (−)-{[7-(2,6-dichlorophenyl)-5-fluoro-2,3-dihydro-1-benzofuran-2-yl]methyl}amine]: the Emax was determined as 100%.

Staying with this assay, now noted: CHO, read-out: 5-HT2C Function Emax (%), percentage of the response observed with a maximally effective concentration of 5-HT.
`CNCC1Cc2cc(F)cc(-c3ccc(Cl)cc3Cl)c2O1` (single isomer, unassigned; (-)) [Example 446]: the Emax came to 70%.

Still in this assay, the particulars now being: calcium mobilization, CHO cells stably expressing human 5-HT2C; read-out: 5-HT2C Function EC50.
Regarding `CNCC1Cc2cc(F)cc(-c3ccc(Cl)cc3Cl)c2O1` (single isomer, unassigned; (-)) [Example 446], the EC50 came out at 460 nM. Still for that read-out and setting: the same measure for `CNCC1Cc2cc(F)cc(-c3c(Cl)cccc3Cl)c2O1` (single isomer, unassigned; (-)) [Example 544, (−){[7-(2,6-dichlorophenyl)-5-fluoro-2,3-dihydro-1-benzofuran-2-yl]methyl}methylamine]: 73 nM; for `CNCC1Cc2cc(Cl)cc(-c3cc(Cl)ccc3Cl)c2O1` (single isomer, unassigned; (-)) [Example 563, (−)-{[5-chloro-7-(2,5-dichlorophenyl)-2,3-dihydro-1-benzofuran-2-yl]methyl}methylamine]: 135 nM; for `CNCC1Cc2cc(Cl)cc(-c3c(C)cccc3C)c2O1` (single isomer, unassigned; (-)) [Example 564, (−)-{[5-chloro-7-(2,6-dimethylphenyl)-2,3-dihydro-1-benzofuran-2-yl]methyl}methylamine]: 43 nM.

As to `CNCC1Cc2cc(C)cc(-c3cccc(OC)c3OC)c2O1` (single isomer, unassigned; (-)) [Example 567, (−)-{[7-(2,3-dimethoxyphenyl)-5-methyl-2,3-dihydro-1-benzofuran-2-yl]methyl}methylamine], the EC50 is 9 nM. Still for that read-out and setting: next, `CNCC1Cc2cc(F)cc(-c3cccc(OC)c3OC)c2O1` (single isomer, unassigned; (-)) [Example 568, (−)-{[7-(2,3-dimethoxyphenyl)-5-fluoro-2,3-dihydro-1-benzofuran-2-yl]methyl}methylamine]: 4 nM.

The same assay, now with this note: percentage of the response observed with a maximally effective concentration of 5-HT.
As to `CNCC1Cc2cc(F)cc(-c3c(Cl)cccc3Cl)c2O1` (single isomer, unassigned; (-)) [Example 544, (−){[7-(2,6-dichlorophenyl)-5-fluoro-2,3-dihydro-1-benzofuran-2-yl]methyl}methylamine], the “5-HT2C Function Emax (%)” value turned out to be 70%. In the case of `CNCC1Cc2cc(Cl)cc(-c3cc(Cl)ccc3Cl)c2O1` (single isomer, unassigned; (-)) [Example 563, (−)-{[5-chloro-7-(2,5-dichlorophenyl)-2,3-dihydro-1-benzofuran-2-yl]methyl}methylamine], the “5-HT2C Function Emax (%)” value worked out at 70%.

In the case of `CNCC1Cc2cc(C)cc(-c3cccc(OC)c3OC)c2O1` (single isomer, unassigned; (-)) [Example 567, (−)-{[7-(2,3-dimethoxyphenyl)-5-methyl-2,3-dihydro-1-benzofuran-2-yl]methyl}methylamine], the “5-HT2C Function Emax (%)” value is 60%.
